Test results published in patent publication US20070037887A1, “Blockade of mtor to prevent a hormonal adaptive response” (University of Virginia Patent Foundation, priority 2003, published 2007).

Tests used:
MCF-7 cells = experiment: [3H] thymidine incorporation into DNA, MCF-7 cells; format: cell-based, human
Description: FIGS. 5A & 5B represent the effect of FTS on DNA synthesis in MCF-7 (FIG. 5A) and LTED (FIG. 5B) cells. One hundred thousand cells were plated into each well of 24-well plates. Two days later, the cells were re-fed with IMEM containing 5% DCC-FBS. After another two days, cells were treated in quadruplicate with the compounds indicated for 18 hours. [^3H] thymidine (1 μCi/well) was added during the last 2 h of incubation. [^3H] thymidine incorporated into DNA was normalized by protein content.
The inhibitory effect of FTS on cell growth may be the result of inhibition of cellular proliferation, induction of apoptosis, or both. To determine the mechanism by which FTS inhibits cell growth, FTS's effect on DNA synthesis and apoptosis was investigated. […] Estradiol (10^−10 M) increased [^3H] thymidine incorporation by 2.6 fold compared to the control level in MCF-7 cells.

[1] = system: ERK1/2, Akt, p70S6K, PHAS-1 phosphorylation in LTED cells; experiment: IGF-1 induced activation of MAP kinase, PI3 kinase and mTOR in LTED cells (Western); format: cell-based, human
Description: FIG. 9. represents data showing the effect of FTS on IGF-1 induced activation of MAP kinase, PI3 kinase, and mTOR in LTED cells. Subconfluent LTED cells grown in 60 mm dishes were serum starved for 24 h, pretreated with FTS (100 μM) or LY 294002 (LY, 20 μM) for 10, 30 or 60 min before addition of IGF-1 (20 ng/ml for 10 min). Cells were then harvested and cell lysates prepared. Phosphorylated and total kinases were detected by Western analysis using specific antibodies.
LTED cells were pretreated with FTS (100 μM) or LY 294002 (20 μM) for 10, 30, and 60 min and then IGF-1 (20 ng/ml) was added for 10 min. […] The inhibitory effect was seen as early as 10 minutes of treatment whereas FTS induced no effect. In marked contrast, both FTS and Ly inhibited the phosphorylation of 4E BP-1, particularly at the 60 minute time point. (FIG. 9).

mTOR-raptor complex = target: T1, mTOR-raptor complex (Rattus norvegicus, UniProt P42346+Q8N122); experiment: Coimmunoprecipitation of raptor with mTOR from 293T cells incubated with compound; format: cell-based; conditions: overexpressed in 293T cells, increasing concentrations, 1 h
T1 construct: rows headed: amount of HA-raptor that coimmunoprecipitated with AU1-mTOR; other: extracts incubated with increasing concentrations; amount of HA-raptor that coimmunoprecipitated with AU1-mTOR; other: overexpressed in 293T cells, increasing concentrati; half maximal effect on raptor dissociation from mTOR; other: AU1-mTOR and HA-raptor overexpressed in 293T cells, 1 h; association of AU1-mTOR and HA-rapto
Description: (§1) FIG. 11A & 11B represent data showing FTS inhibits PHAS-I phosphorylation and promotes dissociation of the mTOR-raptor complex in 293T cells. 293T cells were transfected with pcDNA3AU1-mTOR, pcDNA33HARaptor, pcDNA33HA-mLST8, and pCMV-Tag3APHAS-I (FIG. 11A). After 18 h the cells were incubated for 1 h with increasing concentrations of FTS before extracts were prepared. A sample of each extract was subjected to SDS-PAGE and immunoblotted to detect PHAS-I or PThr^36/45. AU1-mTOR was also immunoprecipitated from each extract, and immune complexes were subjected to SDSPAGE and immunoblotted with mTAb2, to detect mTOR, and with anti-HA antibodies, to detect HA-mLST8 and HA-raptor. Nontransfected 293T cells were incubated with increasing concentrations of FTS for 1 h before extracts were prepared. mTOR was immunoprecipitated with mTAb1, and samples were subjected to SDS-PAGE.
(§2) FIGS. 12A & 12B represent data showing the effects of incubating cells with increasing concentrations of FTS and GTS on mTOR activity and mTOR association with raptor and mLST8. AU1-mTOR, HA-raptor, and HAmLST8 were overexpressed in 293T cells. The cells were then incubated for 1 h with increasing concentrations of FTS (●, ▴, ▪) or GTS (∘, Δ, □) before extracts were prepared. Immunoprecipitations were then conducted with anti-AU1 antibodies. mTOR kinase activity (●, ∘) was determined by measuring ^32P incorporation into [His^6]PHAS-I in immune complex kinases assays performed with [γ-^32P]ATP. The relative amounts of HA-raptor (▴, Δ) and HA-mLST8 (▪, □) that coimmunoprecipitated with AU1-mTOR were determined after immunoblotting with anti-HA antibodies. The results (mean values±S.E. from 3 experiments) are expressed as percentages of the mTOR activity (FIG. 12A) or coimmunoprecipitating proteins (FIG. 12B) from samples incubated without FTS or GTS, and have been corrected for the amounts of AU1-mTOR immunoprecipitated.
To investigate further the inhibitory effects of FTS on mTOR signaling, the effect of the drug on the association of mTOR, raptor, and mLST8 was determined. AU1-mTOR and HA-tagged forms of raptor and mLST8 were overexpressed in 293T cells, which were then incubated with increasing concentrations of FTS before AU1-mTOR was immunoprecipitated with anti-AU1 antibodies. Immunoblots were prepared with anti-HA antibodies to assess the relative amounts of HA-raptor and HA-mLST8 that coimmunoprecipitated with AU 1-mTOR (FIG. 11A).
Results obtained with overexpressed proteins are not necessarily representative of responses of endogenous proteins. Therefore, experiments were conducted to investigate the effect FTS on the endogenous TORC1 in nontransfected cells. […]

JNK = JNK activation in LTED cells cultured in vitro; format: cell-based, human
Text: FIGS. 17A & 17B represent data showing the effects of FTS on JNK activation in LETD cells cultured in vitro.
FIGS. 17A & 17B represent data showing the effects of FTS on JNK activation in LTED cells cultured in vitro. […] JNK activation has been reported to be associated with apoptosis.

mTOR-mLST8 = experiment: Coimmunoprecipitation of mLST8 with mTOR from 293T cells incubated with compound; format: cell-based; conditions: overexpressed in 293T cells, 1 h
Description: as §1, §2
To investigate further the inhibitory effects of FTS on mTOR signaling, the effect of the drug on the association of mTOR, raptor, and mLST8 was determined. […]

T1 sequence (Q9BVC4 whole entry): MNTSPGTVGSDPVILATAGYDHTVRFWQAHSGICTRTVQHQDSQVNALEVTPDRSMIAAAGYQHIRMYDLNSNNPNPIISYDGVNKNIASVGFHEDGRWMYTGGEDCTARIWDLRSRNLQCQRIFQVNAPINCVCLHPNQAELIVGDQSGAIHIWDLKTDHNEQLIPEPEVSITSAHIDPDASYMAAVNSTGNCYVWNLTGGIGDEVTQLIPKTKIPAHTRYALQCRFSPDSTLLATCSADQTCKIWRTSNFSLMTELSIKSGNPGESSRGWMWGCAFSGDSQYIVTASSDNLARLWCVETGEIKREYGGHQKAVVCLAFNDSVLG
T1 sequence (Q8N122 whole entry): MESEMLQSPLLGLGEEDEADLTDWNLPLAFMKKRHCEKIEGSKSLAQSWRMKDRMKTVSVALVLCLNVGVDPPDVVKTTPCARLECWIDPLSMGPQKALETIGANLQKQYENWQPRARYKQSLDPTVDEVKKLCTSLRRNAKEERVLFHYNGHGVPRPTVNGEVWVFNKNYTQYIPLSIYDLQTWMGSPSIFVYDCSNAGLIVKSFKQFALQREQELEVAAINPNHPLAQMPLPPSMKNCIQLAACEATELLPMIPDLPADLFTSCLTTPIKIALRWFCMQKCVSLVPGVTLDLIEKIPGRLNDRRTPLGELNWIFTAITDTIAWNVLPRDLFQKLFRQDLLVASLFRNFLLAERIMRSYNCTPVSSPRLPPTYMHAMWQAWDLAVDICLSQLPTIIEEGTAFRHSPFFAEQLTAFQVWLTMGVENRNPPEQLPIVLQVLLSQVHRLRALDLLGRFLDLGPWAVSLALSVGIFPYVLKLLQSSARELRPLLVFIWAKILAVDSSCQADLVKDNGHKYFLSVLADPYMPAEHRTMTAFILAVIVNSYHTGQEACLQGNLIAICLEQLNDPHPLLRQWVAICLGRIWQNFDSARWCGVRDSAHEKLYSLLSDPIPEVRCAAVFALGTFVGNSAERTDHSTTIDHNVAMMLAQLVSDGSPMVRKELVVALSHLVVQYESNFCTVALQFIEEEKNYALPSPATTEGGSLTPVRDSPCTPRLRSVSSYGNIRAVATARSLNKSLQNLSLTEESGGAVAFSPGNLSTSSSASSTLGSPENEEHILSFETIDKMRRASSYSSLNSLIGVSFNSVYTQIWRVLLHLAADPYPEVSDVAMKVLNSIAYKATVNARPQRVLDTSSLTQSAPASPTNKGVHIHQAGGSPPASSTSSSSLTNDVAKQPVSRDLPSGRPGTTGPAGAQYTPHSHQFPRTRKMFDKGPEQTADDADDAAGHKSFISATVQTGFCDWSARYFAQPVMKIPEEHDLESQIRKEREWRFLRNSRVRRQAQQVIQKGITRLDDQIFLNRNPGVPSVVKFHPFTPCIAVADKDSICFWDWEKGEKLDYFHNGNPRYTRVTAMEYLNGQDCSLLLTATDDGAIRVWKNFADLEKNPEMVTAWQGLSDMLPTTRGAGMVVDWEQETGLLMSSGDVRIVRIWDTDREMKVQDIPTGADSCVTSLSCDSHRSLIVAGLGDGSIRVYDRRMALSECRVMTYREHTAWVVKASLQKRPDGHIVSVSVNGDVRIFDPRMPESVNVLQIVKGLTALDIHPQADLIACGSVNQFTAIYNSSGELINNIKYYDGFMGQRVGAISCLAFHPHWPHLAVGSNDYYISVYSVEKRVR

| Structure (SMILES) | [3H] thymidine incorporated into DNA (MCF-7 cells; FTS 75 μM, 18 hours) | estradiol-induced increase of [3H] thymidine incorporation (MCF-7 cells; FTS with estradiol 10^−10 M) | IGF-1 induced ERK1/2 phosphorylation ([1]; FTS 100 μM or LY 294002 20 μM for 10, 30, 60 min, IGF-1 20 ng/ml 10 min) | phosphorylation of 4E BP-1 ([1]; FTS 100 μM or LY 294002 20 μM, particularly at 60 minute time point) | IGF-1 induced phosphorylation of Akt at Ser473 and p70S6K at Thr389 ([1]; FTS 100 μM or LY 294002 20 μM, IGF-1 20 ng/ml 10 min) | amount of HA-raptor that coimmunoprecipitated with AU1-mTOR (mTOR-raptor complex) | JNK activation (JNK) | amount of HA-mLST8 associated with AU1-mTOR (mTOR-mLST8) |
| --- | --- | --- | --- | --- | --- | --- | --- | --- |
| CC(C)=CCC/C(C)=C/CC/C(C)=C/CSc1ccccc1C(=O)O [FTS, farnesylthiosalicylic acid] | significantly reduced | completely blocked | Neither FTS nor LY 294002 inhibited | inhibited | no effect | progressive decrease | stimulates JNK activation | did not appear to change |
| CC(C)=CCC/C(C)=C/CSc1ccccc1C(=O)O [GTS, S-geranylthiosalicylic acid, reference compound] |  |  |  |  |  | relatively little effect |  | relatively little effect |
